71 molecules from PubChem BioAssay AID179 (DTP/NCI, 2004) can be followed below.

The experiment relates to CEM cells HIV-1 protection, formazan growth assay. Put plainly: NCI AIDS Antiviral Assay. Particulars: for IC50: measured here: growth of uninfected CEM cells. Summed up:
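CEM (human) cells, HIV-1 infected vs uninfected, 5-point dosing, formazan growth read-out. Retest threshold 50% protection.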

The source made the active and inactive calls.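 Rule for the calls: active = compounds giving half or more protection of infected cells from virus-caused growth loss, again on retest; inactive = the rest.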

For the molecule `O=S(=O)([O-])[O-].O=c1[nH]cnc2[nH]ncc12.O=c1[nH]cnc2[nH]ncc12.[Cu+2]`, the EC50 is greater than 83.2 µM and the IC50 came out at 52.5 µM.

Turning to `O=C(O)[C@@H]1CSC(c2ccccc2F)N1` (stereo not given in full), the EC50 was greater than 200 µM and the half-inhibitory concentration (IC50) is greater than 200 µM. On to `COC1=C2CC(C)CC(OC)C(O)C(C)/C=C(\C)C(OC(N)=O)C(OC)/C=C\C=C(/C)C(=O)NC(=C(/C=N/N3CCCCC3)C1=O)C2=O` (stereo not given), for which the EC50 was greater than 200 µM and the IC50 was determined as 3.89 µM. The corresponding values for `CC(=O)OCC(C)(COC(C)=O)N1C(=O)C2C3c4ccccc4C(c4ccccc43)C2C1=O` (stereo not given) are greater than 200 µM and greater than 200 µM. As for `Cc1nc2nc3n(c(=O)c2nc1C)CCS3`, the outcome was inactive. `C/C(=N\Nc1ccc([N+](=O)[O-])cc1[N+](=O)[O-])c1sc(-n2nc(-c3ccccc3)cc2-c2ccccc2)nc1C`: the EC50 was greater than 126 µM and the IC50 worked out at 42.7 µM. For `S=C(N1CC1)N1CC1` the same measures were greater than 200 µM and 42.7 µM. The corresponding values for `C=C1c2nc3ccccc3n2C=C(c2ccccc2)N1c1ccccc1` are greater than 200 µM and 3.98 µM. On to `COc1ccc2c(c1)[nH]c(=O)c1c3ccccc3[nH]c21`, for which the EC50 was greater than 200 µM and the IC50 was 145 µM. For `O=C(ONC(=O)[C@H]1C2C=CC(C2)[C@@H]1C(=O)NOC(=O)c1ccccc1)c1ccccc1` the same measures were greater than 200 µM and 5.37 µM. As for `O=C(Cc1nc2ccc(C(=O)c3ccccc3)cc2[nH]c1=O)C(=O)Nc1ccc(C(F)(F)F)cc1[N+](=O)[O-]`, the EC50 is greater than 69.2 µM and the half-maximal inhibitory concentration (IC50) was determined as 47.9 µM. For `N#Cc1c(-c2ccc(NCc3nc4ccccc4[nH]3)cc2)cc(-c2ccco2)[nH]c1=O` the same measures were greater than 200 µM and 27.5 µM. For the molecule `COc1ccc(N)c(CC2c3ccccc3CCN2C)c1` (stereo not given), the result was inactive. In the case of `Cc1ccc(S(=O)(=O)N2C[C@H](O)C[C@H]2C(=O)O)cc1`, the result was inactive. Same read-out and setting: under `O=c1ccc2cc3ccc4cccc5ccc(c2o1)c3c45` stands “inactive”.

Take `COc1cc2c(cc1OC)C1CC(=O)C(CCCCCCC3CN4CCc5cc(OC)c(OC)cc5C4CC3=O)CN1CC2` (stereo not given): the outcome was inactive. On to `CCC1SC2=NCCN2C1(O)c1ccc(Cl)cc1` (stereo not given), for which the EC50 was greater than 200 µM and the IC50 is 102 µM. For `O=[N+]([O-])c1cccc(S(=O)(=O)OCn2ncc3ccc([N+](=O)[O-])cc32)c1` the same measures were greater than 200 µM and 151 µM. For `S=c1[nH]nc(COc2ccc(Cl)cc2)n1-c1ccccc1` the same measures were greater than 200 µM and 30.9 µM. With `O=C(COc1ccc(Cl)cc1)N1N=C(c2ccc(Cl)cc2)CC1(O)c1ccccc1` (stereo not given), the EC50 was greater than 16.2 µM and the IC50 is greater than 16.2 µM. `CCOc1ccc(NC(=O)CC2C(=O)Nc3ccccc3S2(=O)=O)cc1` (stereo not given): the EC50 is greater than 19.5 µM and the IC50 was greater than 19.5 µM. For `CN1CCc2c(sc3nc(Nc4ccccc4)n(N)c(=O)c23)C1`, the EC50 was greater than 200 µM and the half-inhibitory concentration (IC50) is 93.3 µM. The corresponding values for `C[S+](C)C1(c2ccccc2)C(=O)c2ccccc2C1=O` are greater than 575 µM and greater than 575 µM. For `Clc1ccc(Nc2nnc(CNc3ccc(-c4nnc(Nc5ccc(Cl)cc5)o4)cc3)o2)cc1` the same measures were greater than 200 µM and 1.23 µM. For `Cc1cc2nc3c(C#N)c(C)c(CCCl)c(Cl)n3c2cc1C` the same measures were greater than 200 µM and 3.31 µM. Turning to `COc1ccc(/C=C2\NC(=S)N(/C=C3\C(=O)Oc4ccccc4C3=O)C2=O)cc1OC`, the EC50 was greater than 200 µM and the IC50 is greater than 200 µM. `O=C1CCC[C@]2(CCC[C@@H](O)C2)N1`: the EC50 is greater than 200 µM and the IC50 is greater than 200 µM. On to `O=C1CCCSC(=O)N1Cc1ccccc1`, for which the EC50 was greater than 200 µM and the IC50 was greater than 200 µM. For `Cc1cccc(C2(Br)C(=O)c3ccccc3C2=O)c1`, the EC50 is greater than 200 µM and the IC50 came to 195 µM. `CC(CN1CC(=O)NC(=O)C1)N1CC(=O)NC(=O)C1` (stereo not given): the EC50 was greater than 468 µM and the IC50 was determined as 40.7 µM. For the molecule `CC(=O)Oc1cc(Cl)c(C)c2c1[C@H]1CC[C@]3(C)[C@@H](OC(C)=O)CC[C@H]3[C@@H]1CC2`, the EC50 was greater than 126 µM and the IC50 was greater than 126 µM. Take `CCCN(C)C(=O)N(CC)S(=O)(=O)c1ccc(Cl)cc1`: the result was inactive.

Consider `O=C(CCCCCCCCC(=O)OCCCn1cc(C(=O)NC(=O)OCc2ccccc2)c(=O)[nH]c1=O)OCCCn1cc(C(=O)NC(=O)OCc2ccccc2)c(=O)[nH]c1=O`, for which the EC50 is greater than 15.8 µM and the IC50 is greater than 15.8 µM.

With `O=C(CCc1n[nH]c(=S)o1)Nc1cc(Cl)c(Cl)cc1Cl`, the result was inactive.

As for `O=[N+]([O-])c1ccc(C2=NOC3COC4C=CC=CC4OCC23)cc1` (stereo not given), the EC50 was greater than 30.2 µM and the IC50 is greater than 30.2 µM.

As for `COc1ccccc1C1(C)SCc2nc3ccccc3n21` (stereo not given), the EC50 was greater than 87.1 µM and the IC50 came out at 79.4 µM.

Turning to `CC(CO)[C@H]1OC(=O)C=C2[C@@]13O[C@@H]3[C@H]1OC(=O)[C@@]3(C)[C@H]4O[C@H]4C[C@@]2(C)[C@@H]13` (stereo not given in full), the EC50 is greater than 2 µM and the 50% inhibitory concentration (IC50) is 0.776 µM. The corresponding values for `Cc1ccc(S(=O)(=O)n2c3ccc(Br)cc3c3nc4ccccc4nc32)cc1` are greater than 100 µM and greater than 100 µM. For `COCc1c(CO)cnc(C)c1OC1OC(CO)C(O)C(O)C1O` (stereo not given) the same measures were greater than 724 µM and greater than 724 µM. Consider `COc1ccc(C2C(=O)c3ccc(OC)cc3OC2c2ccccc2)cc1` (stereo not given), for which the EC50 is greater than 200 µM and the IC50 amounted to 87.1 µM. Regarding `COC(=O)c1cc(C(=O)OC)c(CC(=O)C(=O)NC2C3CC4CC(C3)CC2C4)nc1CC(=O)C(=O)NC1C2CC3CC(C2)CC1C3` (stereo not given), the EC50 was greater than 282 µM and the IC50 was greater than 282 µM.

In the case of `c1ccc2c(NCCCCCCCCNc3c4ccccc4nc4ccccc34)c3ccccc3nc2c1`, the outcome was inactive. Regarding `CCCNC(=O)c1sc(SC)nc1NC(=O)c1ccc(OC)cc1`, the EC50 is greater than 200 µM and the IC50 was greater than 200 µM.

On to `O=P1(Oc2ccccc2)Nc2cc(Cl)ccc2S1` (stereo not given), for which the EC50 is greater than 45.7 µM and the IC50 is 22.4 µM. For `CC12CCC(C(=O)OC1=O)C2(C)C` (stereo not given) the same measures were greater than 200 µM and greater than 200 µM. The corresponding values for `CNC(=O)c1cc(NC(=O)N(CCC#N)CCN(C(=O)N[C@@H](Cc2ccccc2)C(=O)N[C@@H](CC(C)C)C(=O)NC)c2ccccc2)ccc1OC` are greater than 200 µM and 32.4 µM. As to `CC(=O)Nc1cc(Cl)cc2[nH]c(C)nc12`, the EC50 is greater than 955 µM and the IC50 is 676 µM. For `O=[N+]([O-])c1ccc(O)c(/C=N\NC(=S)Nc2ccc(F)cc2)c1` the same measures were greater than 77.6 µM and greater than 77.6 µM. For `O=c1[nH]c(=O)n(C2CC(O)C(CO)O2)c2nc3ccc4ccccc4c3nc12` (stereo not given) the same measures were greater than 100 µM and 13.2 µM.

As for `N#C/C(=C1/Sc2c(nc[nH]c2=O)N1c1ccccc1)c1nc2ccccc2[nH]1`, the EC50 was greater than 3.8 µM and the IC50 is greater than 3.8 µM. Consider `CCC(=O)NCC1CCCN2CCCCC12` (stereo not given), for which the EC50 was greater than 200 µM and the IC50 is greater than 200 µM. Take `CCCCc1c2c(nc3c1CCc1cc4c(nc1-3)-c1nc3c(c(CCCC)c1CC4)CCC/C3=C\c1ccccc1)/C(=C/c1ccccc1)CCC2`: the EC50 was greater than 5.5 µM and the IC50 was greater than 5.5 µM. `Cc1nc(N)c(N2CCN([N+](=O)[O-])CC2)c(=O)[nH]1`: the outcome was inactive. Take `O=C(Nc1ccc(C(F)(F)F)cc1[N+](=O)[O-])C(=O)C(C(=O)c1ccc2ccccc2c1)C1OC(=O)c2ccccc21` (stereo not given): the EC50 was greater than 64.6 µM and the IC50 was 33.9 µM. For `CC(=O)SC1CC(=O)C=C2CCC3C4CCC(=O)OC4(C)CCC3C21C` (stereo not given) the same measures were greater than 200 µM and greater than 200 µM. For `COc1nc2c(c(=O)n1C)N[C@H]1[C@H](OC(C)=O)[C@@H](OC(C)=O)CO[C@H]1N2` the same measures were greater than 200 µM and greater than 200 µM. The corresponding values for `CN1CC2(CCCCC2)C(O)C12C=CCCC2` (stereo not given) are greater than 380 µM and greater than 380 µM. Take `COC(=O)c1c(/C(=N/Nc2ccc([N+](=O)[O-])cc2)[N+](=O)[O-])ssc1=N`: the EC50 is greater than 200 µM and the IC50 worked out at 10 µM. For `CSC12c3cc(C)n(-c4ccc(I)cc4)c3CC(C)(C)CN1C(=O)C2Oc1ccccc1` (stereo not given), the EC50 is greater than 200 µM and the IC50 was determined as 75.9 µM. For the molecule `CCOP(=O)(OCC)/C(C#N)=C/c1ccc(-c2ccc(F)cc2F)o1`, the result was inactive.

On to `Cc1ccccc1NC(=S)N=Nc1c(O)[nH]c2ccccc12`, for which the EC50 was greater than 200 µM and the IC50 is greater than 200 µM. In the case of `Cc1c2c(cn1C)NC(=O)CN=C2c1ccccc1`, the EC50 is greater than 200 µM and the IC50 is greater than 200 µM.

Consider `CC(C)(C)c1cc(C(P(=O)(c2ccccc2)c2ccccc2)P(=O)(c2ccccc2)c2ccccc2)cc(C(C)(C)C)c1O`, for which the EC50 is greater than 200 µM and the half-inhibitory concentration (IC50) amounted to 3.24 µM. `COc1cccc(C(=O)O)c1Cc1cccc2ccccc12`: the result was inactive. For the molecule `Cc1c(C)c2ccc3occc(=O)c3c2oc1=O`, the EC50 was greater than 195 µM and the IC50 turned out to be 95.5 µM.

Consider `Nn1c(SSSSc2nnc(-c3ccccc3)n2N)nnc1-c1ccccc1`, for which the EC50 was greater than 200 µM and the IC50 is greater than 200 µM. With `CN(c1ccccc1)S(=O)(=O)c1ccc(Cl)cc1`, the EC50 is greater than 200 µM. Consider `COc1ccc(/C=C2\N=C(N3CCOCC3)NC2=O)cc1`, for which the EC50 was greater than 200 µM and the IC50 was greater than 200 µM. For the molecule `O=C(C1OC1c1ccc([N+](=O)[O-])cc1)C12CC3CC(CC(C3)C1)C2` (stereo not given), the EC50 was greater than 200 µM and the IC50 turned out to be 12.3 µM. The corresponding values for `CCC1=[N+]([O-])C(C)(C)NC1(C)C` are greater than 200 µM and greater than 200 µM. For `NCCCc1c(-c2ccccc2)nc(N)[nH]c1=O`, the EC50 was greater than 200 µM and the concentration for half-maximal inhibition (IC50) was greater than 200 µM.
